Source: patent US20120190669A1, “OXINDOLE COMPOUNDS” (CYLENE PHARMACEUTICALS, INC., priority 2008, published 2012)
Like-named read-outs stand apart in the source and are kept apart here.

What was measured:
recombinant human FLT-3 = biological target: T1, recombinant human FLT-3 (Homo sapiens, UniProt P36888); test: FLT-3 kinase activity, cell free in vitro assay; type: biochemical; settings: Table 7; 10 uM ATP; read-out: FLT3_RB: IC50
T1 sequence (P36888 27-993): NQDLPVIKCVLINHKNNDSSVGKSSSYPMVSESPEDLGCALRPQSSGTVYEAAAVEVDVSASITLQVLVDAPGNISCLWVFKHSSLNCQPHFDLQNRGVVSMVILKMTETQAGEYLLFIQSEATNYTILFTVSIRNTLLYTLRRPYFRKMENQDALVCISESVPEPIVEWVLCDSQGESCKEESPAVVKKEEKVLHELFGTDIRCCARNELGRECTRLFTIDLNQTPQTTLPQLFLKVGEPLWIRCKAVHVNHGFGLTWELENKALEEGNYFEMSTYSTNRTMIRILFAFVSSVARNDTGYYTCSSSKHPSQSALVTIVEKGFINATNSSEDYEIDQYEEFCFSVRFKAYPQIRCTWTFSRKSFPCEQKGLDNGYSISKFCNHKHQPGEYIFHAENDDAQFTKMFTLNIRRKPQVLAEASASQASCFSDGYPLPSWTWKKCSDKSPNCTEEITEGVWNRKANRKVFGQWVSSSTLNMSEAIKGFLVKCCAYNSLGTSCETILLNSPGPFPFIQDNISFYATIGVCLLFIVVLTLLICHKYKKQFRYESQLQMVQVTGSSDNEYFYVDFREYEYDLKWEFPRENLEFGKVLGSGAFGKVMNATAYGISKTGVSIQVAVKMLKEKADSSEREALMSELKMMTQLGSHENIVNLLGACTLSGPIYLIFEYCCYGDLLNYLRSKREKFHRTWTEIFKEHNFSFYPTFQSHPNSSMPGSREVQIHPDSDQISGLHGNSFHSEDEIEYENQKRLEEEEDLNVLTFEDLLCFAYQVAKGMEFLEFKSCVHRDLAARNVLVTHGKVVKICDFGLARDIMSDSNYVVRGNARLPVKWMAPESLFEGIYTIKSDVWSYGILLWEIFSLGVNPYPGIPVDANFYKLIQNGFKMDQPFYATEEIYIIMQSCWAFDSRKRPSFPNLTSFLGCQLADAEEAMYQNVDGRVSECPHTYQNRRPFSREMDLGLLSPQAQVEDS

recombinant PIM-1 = recombinant PIM-1 (Homo sapiens, UniProt P11309); test: PIM-1 kinase assay (radiometric, 15 uM ATP, DMSO 4%); type: biochemical
K-562 = test: Alamar Blue cell proliferation assay, K-562; type: cell-based; settings: Homo sapiens
Method: (§1) A representative cell-proliferation assay protocol using Alamar Blue dye (stored at 4° C., use 20 ul per well) is described hereafter.
(§2) 96-Well Plate Setup and Compound Treatment
(§3) a. Split and trypsinize cells.
(§4) b. Count cells using hemocytometer.
(§5) c. Plate 4,000-5,000 cells per well in 100 μl of medium and seed into a 96-well plate according to the following plate layout. Add cell culture medium only to wells B10 to B12. Wells B1 to B9 have cells but no compound added.
(§6) d. Add 100 μl of 2× drug dilution to each well in a concentration shown in the plate layout above. At the same time, add 100 μl of media into the control wells (wells 1310 to B12). Total volume is 200 μl/well.
(§7) e. Incubate four (4) days at 37° C., 5% CO2 in a humidified incubator.
(§8) f. Add 20 μl Alamar Blue reagent to each well.
(§9) g. Incubate for four (4) hours at 37° C., 5% CO2 in a humidified incubator.
(§10) h. Record fluorescence at an excitation wavelength of 544 nm and emission wavelength of 590 nm using a microplate reader.
(§11) In the assays, cells are cultured with a test compound for approximately four days, the dye is then added to the cells and fluorescence of […] dye is detected after approximately four hours. Different types of cells can be utilized in the assays (e.g., HCT-116 human colorectal carcinoma cells, PC-3 human prostatic cancer cells and MiaPaca human pancreatic carcinoma cells).

MDAMB-231 = test: Alamar Blue cell proliferation assay, MDAMB-231; type: cell-based; settings: Homo sapiens, MDA-MB-231, Table 3, read-out: AB: MDAMB-231
Method: as §1, §2, §3, §4, §5, §6, §7, §8, §9, §10, §11

[1] = tested on: PC-3 human prostatic cancer cells; test: Alamar Blue cell proliferation assay, PC3; type: cell-based; settings: Table 3, read-out: AB: PC3
Method: as §1, §2, §3, §4, §5, §6, §7, §8, §9, §10, §11

[2] = tested on: MiaPaca human pancreatic carcinoma cells; test: Alamar Blue cell proliferation assay, MiaPaCa; type: cell-based
Method: as §1, §2, §3, §4, §5, §6, §7, §8, §9, §10, §11

MV-4-11 = test: Alamar Blue cell proliferation assay, MV-4-11; type: cell-based; settings: Homo sapiens
Method: as §1, §2, §3, §4, §5, §6, §7, §8, §9, §10, §11

recombinant human PIM2 = recombinant human PIM2 (Homo sapiens, UniProt Q9P1W9); test: PIM-2 assay (radiometric); type: biochemical; settings: Table 6; 15 μm ATP; read-out: PIM2: IC50 (15 μm ATP)
Method: Test compounds dissolved and diluted in DMSO ([…]) were added to a reaction mixture comprising […] of 5× Reaction Buffer (40 mM MOPS pH 7.0, 5 mM EDTA), […] of recombinant human PIM2 solution (4 ng PIM-2 dissolved in dilution buffer (20 mM MOPS pH 7.0; EDTA 1 mM; 5% Glycerol; 0.01% Brij 35; […]; […] 2-mercaptoethanol; 1 mg/ml BSA)) and 8 ul of water. Reactions were initiated by the addition of 10 ul of ATP Solution (49% (15 mM MgCl2; 75 uM ATP) 1% ([γ-33P]ATP: Stock 1 mCi/100 μl; 3000 Ci/mmol (Perkin Elmer)) and 10 ul of substrate peptide solution ([…], dissolved in water at a concentration of 1 mM), Reactions were maintained for 10 min at 30° C. The reactions were quenched with 100 ul of 0.75% Phosphoric acid, then transferred to and filtrered through a Phosphocellulose filter plate (Millipore, MSPH-N6B-50). After washing each well 4 times with 0.75% Phosphoric acid, scintillation fluid (20 uL) was added to each well and the residual radioactivity was measured using a Wallac […] counter.

phospho FLT3 = phospho FLT3 cell-based data; settings: Table 4
phospho BAD = phospho BAD cell-based data; settings: Table 4
[3] = tested on: HCT-116 human colorectal carcinoma cells; test: Alamar Blue cell proliferation assay, HCT-116; type: cell-based; settings: Table 4, read-out: AB: HCT-116
Method: as §1, §2, §3, §4, §5, §6, §7, §8, §9, §10, §11

[4] = Table 3, DMSO 4%, read-out: PIM1: IC50 (DMSO 4%)
[5] = K562, Table 3, read-out: AB: K-562
[6] = MIA PaCa-2, Table 3, read-out: AB: MiaPaCa
[7] = MV4-11, Table 3, read-out: AB: MV-4-11
[8] = Table 4, 15 um ATP, read-out: PIM1: IC50 (15 um ATP)
[9] = K562, Table 4, read-out: AB: K-562
[10] = MV4-11, Table 4, read-out: AB: MV-4-11
[11] = MIA PaCa-2, Table 4, read-out: AB: MiaPaCa

Sequence of recombinant PIM-1 (P11309 whole entry): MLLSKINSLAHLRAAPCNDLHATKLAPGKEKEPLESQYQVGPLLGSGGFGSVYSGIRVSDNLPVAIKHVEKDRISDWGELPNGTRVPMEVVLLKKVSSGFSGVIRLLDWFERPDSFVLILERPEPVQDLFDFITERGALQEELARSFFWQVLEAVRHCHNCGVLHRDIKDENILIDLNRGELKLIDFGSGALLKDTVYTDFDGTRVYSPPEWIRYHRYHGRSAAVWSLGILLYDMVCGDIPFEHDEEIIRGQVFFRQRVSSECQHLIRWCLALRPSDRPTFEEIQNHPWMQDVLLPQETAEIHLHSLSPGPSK
Sequence of recombinant human PIM2 (Q9P1W9 whole entry): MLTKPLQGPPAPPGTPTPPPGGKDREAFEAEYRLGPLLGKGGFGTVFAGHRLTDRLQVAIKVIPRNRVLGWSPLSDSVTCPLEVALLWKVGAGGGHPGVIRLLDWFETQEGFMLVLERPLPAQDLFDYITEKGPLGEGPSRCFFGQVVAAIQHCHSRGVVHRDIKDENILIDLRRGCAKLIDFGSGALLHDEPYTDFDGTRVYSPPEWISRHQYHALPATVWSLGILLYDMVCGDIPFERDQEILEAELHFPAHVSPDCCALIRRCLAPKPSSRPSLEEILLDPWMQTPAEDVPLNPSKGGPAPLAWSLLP

Row | Compound | IC50 (recombinant PIM-1; [4]) | IC50 (K-562; [5]) | IC50 (MDAMB-231) | IC50 [1] | IC50 [2, 6] | IC50 (MV-4-11; [7]) | other results
1 | Cn1cncc1CNC(=O)c1cccc(-c2ccc(/C=C3/C(=O)Nc4ccc(F)cc43)o2)c1 [drawing 265] | – | – | – | – | – | – | IC50 (recombinant human FLT-3): 100 nM
2 | NC(=O)c1ccc(-c2ccc(/C=C3\C(=O)Nc4ccc(Cl)cc43)o2)cc1 | < 1000 nM | > 10000 nM | > 10 µM | > 30 µM | > 10 µM | – | –
3 | O=C1Nc2ccc(Cl)cc2/C1=C\c1ccc(-c2ccc(OCCN3CCOCC3)cc2)o1 | < 1000 nM | > 10000 nM | > 10 µM | > 30 µM | > 10 µM | > 10000 nM | –
4 | O=C1Nc2ccccc2/C1=C\c1ccc(-c2ccc(C(=O)NCCN3CCCC3)cc2)o1 | – | – | – | – | – | – | IC50 (recombinant human FLT-3): 99 nM
5 | CS(=O)(=O)Nc1ccc(-c2ccc(/C=C3\C(=O)Nc4ccc(Cl)cc43)o2)cc1 | < 1000 nM | 2880 nM | > 10 µM | 11 µM | > 10 µM | 2220 nM | –
6 | O=C1Nc2ccc(F)cc2/C1=C\c1ccc(-c2cccc(C(=O)NCc3ccncc3)c2)o1 [drawing 264] | – | – | – | – | – | – | IC50 (recombinant human FLT-3): 147 nM
7 | CCN(CC)CCNC(=O)c1ccc(-c2ccc(/C=C3/C(=O)Nc4ccc(Cl)cc43)o2)cc1 [drawing 216] | < 1000 nM | > 10000 nM | > 10 µM | – | > 10 µM | > 1000 nM | –
8 | NC(=O)c1cccc(-c2ccc(/C=C3\C(=O)Nc4ccc(Cl)cc43)o2)c1 | < 1000 nM | > 10000 nM | > 10 µM | > 30 µM | > 10 µM | 1910 nM | –
9 | CN1CCCN(C(=O)c2ccc(-c3ccc(/C=C4/C(=O)Nc5ccc(Cl)cc54)o3)cc2)CC1 [drawing 259] | – | – | – | – | – | – | IC50 (recombinant human PIM2): < 1000 nM
10 | CN(C)CCNC(=O)c1cccc(-c2ccc(/C=C3/C(=O)Nc4ccc(Cl)cc43)o2)c1 [drawing 232] | – | – | – | – | – | – | IC50 (phospho FLT3): 5.29 µM; IC50 (recombinant PIM-1; [8]): 289 nM; IC50 (K-562; [9]): 367 nM; IC50 (MV-4-11; [10]): 2990 nM; IC50 (phospho BAD): 444 nM; IC50 [2, 11]: 1.94 µM; IC50 [3]: 1190 nM
11 | C/C(=C1\C(=O)Nc2ccc(Cl)cc21)c1ccc(-c2ccc(C(=O)N3CCCN(C)CC3)cc2)o1 [drawing 258] | – | – | – | – | – | – | IC50 (recombinant human PIM2): < 1000 nM
12 | O=C1Nc2ccc(Cl)cc2/C1=C\c1ccc(-c2cccc(C(=O)NCCCn3ccnc3)c2)o1 [drawing 233] | – | – | – | – | – | – | IC50 (phospho FLT3): > 10 µM; IC50 (recombinant PIM-1; [8]): 376 nM; IC50 (K-562; [9]): 288 nM; IC50 (MV-4-11; [10]): 67 nM; IC50 (phospho BAD): 1860 nM; IC50 [2, 11]: 0.233 µM; IC50 [3]: 314 nM
